pIC50: −log10 of the molar value.
Molecular target: ClpP1P2 (Mycobacterium tuberculosis (strain ATCC 25618 / H37Rv), UniProt P9WPC3+P9WPC5)
Experiment: in vitro assay to detect presence of AMC directly proportional to the activity of ClpP1P2. GHDDI collaboration.
Format: functional

SMILES	pIC50
Cc1cn2c(=O)c(-c3ccnc(N[C@@H](C)CO)n3)cnc2s1	< 4.00
Cc1csc2ncc(-c3ccnc(N4CCCN(C)CC4)n3)c(=O)n12	< 4.00
Cc1sc2ncc(-c3ccnc(NC4CCN(C)CC4)n3)c(=O)n2c1C	< 4.00
Cc1csc2ncc(-c3ccnc(N4CCCC[C@@H]4CO)n3)c(=O)n12	< 4.00
Cc1csc2ncc(-c3ccnc(N4CCN(C)CC4)n3)c(=O)n12	< 4.00
CCC[C@H]1CN(c2cncc(C(=O)N3CCCCC3)n2)C[C@@H]1N(C)C	< 4.00
CC(C)Nc1ccnc(-c2ccnc3c2ccn3C)n1	< 4.00
CCC[C@H]1CN(c2cncc(C(=O)N(C)C)n2)C[C@@H]1N(C)C	< 4.00
Cc1ccc2cc(CN(C)Cc3ccncn3)c(=O)[nH]c2c1	< 4.00
O=C(c1cncc(NCC2COc3ccccc3C2)n1)N1CCOCC1 (stereo unspecified)	< 4.00
CCCn1cc(-c2cc(-c3cc(CC)n[nH]3)c(C#N)c(N)n2)c(C)n1	< 4.00
COc1ccc2cc(CN(C)CCN3CCCCC3=O)c(=O)[nH]c2c1	< 4.00
Cc1nc(N2CCCC2C(=O)NCc2ccsc2)nc2ccccc12 (stereo unspecified)	< 4.00
O=C(c1cc(-c2ccco2)nc2c(Cl)cccc12)N1CC[C@H]2CNC[C@H]21	< 4.00
COc1ccc2nc(O)c(CN(C)Cc3ncc[nH]3)cc2c1	< 4.00
Cc1n[nH]c(C)c1-c1cc(-c2cc[nH]c2)nc(N)c1C#N	< 4.00
CS(=O)(=O)N1CC[C@]2(O)CCN(c3cc(C#N)ccn3)C[C@@H]2C1	< 4.00
O=C1C[C@H]2CC[C@@H](CN1)N2c1cc(-c2ccccc2F)nc2ccnn12	< 4.00
COc1cccc2ccc(N3CCC(O)(c4ccc(C)cn4)CC3)nc12	< 4.00
CC(C)C1CN(c2cccc(C#N)n2)CCCN1CC1CC1 (stereo unspecified)	< 4.00
CCOc1ccc2[nH]c(=O)c(CN3CCC(n4cnnc4)CC3)cc2c1	< 4.00
Cc1nn2c(N3CCCC(C(N)=O)C3)cc(-c3ccccc3)nc2c1C (stereo unspecified)	< 4.00
COCC(C)N1CCc2onc(-c3ccc(C(F)(F)F)cc3)c2C1 (stereo unspecified)	< 4.00
CN(C)C(=O)CN1C[C@@H]2CC[C@H](C1)N(Cc1ccc(Cl)cc1Cl)C2	< 4.00
CCNC(=O)[C@@H]1C[C@H](NC(=O)c2cc(=O)[nH]c3ccc(C)cc23)CN1C	< 4.00

SMILES	pIC50
CC(=O)N1CCc2[nH]cnc2C1C1=CCCN(CCn2cccc2)C1 (stereo unspecified)	< 4.00
CCSc1ncc(-c2cc(C3CC3)nc(N)c2C#N)cn1	< 4.00
Cc1n[nH]c(C)c1-c1cc(-c2cccc(O)c2)nc(N)c1C#N	< 4.00
COc1cc(OC)c2nc(NCCN3CCNC3=O)cc(C)c2c1	< 4.00
COc1ccc2cc(CN(C)CCc3cn[nH]c3)c(=O)[nH]c2c1	< 4.00
CNCCN1C(=O)CC[C@H]2CN(c3cnc4ccccc4n3)CC[C@H]21	< 4.00
N[C@H]1CN(C(=O)c2ccccc2OCCc2ccccc2)C[C@@H]1C1CC1	< 4.00
CN(C)c1cncc(-c2ccnc3c2ccn3C)n1	< 4.00
Cn1ncc(N2CCOC(CCNC(=O)CO)C2)cc1=O (stereo unspecified)	< 4.00
CCOC(=O)C1(Cc2ccc(Cl)cc2)CCN(Cc2ncc[nH]2)CC1	< 4.00
CC(c1ccncn1)N(C)Cc1cc2cc3c(cc2[nH]c1=O)OCO3 (stereo unspecified)	< 4.00
O=C(c1nc(=O)[nH]c2ccccc12)N1CCCC2(CCNC2)C1 (stereo unspecified)	< 4.00
COc1cccc(-c2cc(NCCN(C)C)nc3[nH]ccc23)n1	< 4.00
CCNCCOc1ccc(-c2cc(N)nc3[nH]ccc23)cc1	< 4.00
N#Cc1ccnc(NCc2cc3n(n2)CCCN(C(=O)C2CCC2)C3)c1	< 4.00
CCCn1cc(-c2cc(-c3c[nH]cn3)c(C#N)c(N)n2)c(C)n1	< 4.00
O=C(c1nc(=O)[nH]c2ccccc12)N1CCCC(CC2CC2)(C(=O)O)C1 (stereo unspecified)	< 4.00
Nc1cccc(-c2cccc3ccnn23)n1	< 4.00
Cc1ccc2nccc(C(=O)N3CCOC(CCN(C)C)C3)c2c1 (stereo unspecified)	< 4.00
CN(C)C1CCN(c2cc(-c3ccccc3)nc3ccnn23)C1 (stereo unspecified)	< 4.00
CN(C)CCC1CN(C(=O)c2cccc3c2OCC3)CCO1 (stereo unspecified)	< 4.00
CC(O)c1cn(CC2CCN(C(=O)c3cscn3)CC2)nn1 (stereo unspecified)	4.07
COc1ccc2c(c1)Cc1c-2nc(N)c(C#N)c1C1CCOC1 (stereo unspecified)	< 4.00
COc1cccc(-c2cc(NCCO)nc3[nH]ccc23)n1	< 4.00
Cc1ccc2[nH]c(=O)cc(C(=O)N[C@@H]3C[C@@H](CO)N(C)C3)c2c1	< 4.00

SMILES	pIC50
Cn1ccc2c(-c3nccc(N)n3)ccnc21	< 4.00
CC(C)=CCN1CCc2onc(-c3ccc(F)c(F)c3)c2C1	< 4.00
Cc1cc(-c2cc(-c3cc(CC(=O)O)cs3)nc(N)c2C#N)oc1C	< 4.00
CCn1nc(NC(=O)Cn2ccc(C(C)=O)n2)c2ccccc21	< 4.00
CCNc1ccnc(-c2ccnc3c2ccn3C)n1	< 4.00
COCCCN1C(=O)CC[C@H]2CN(c3cnc4ccccc4n3)CC[C@H]21	< 4.00
N#Cc1c(N)nc2c(c1C1CCOC1)CCc1cc(O)ccc1-2 (stereo unspecified)	< 4.00
O=C(c1cncc(NCC2COc3ccccc3C2)n1)N1CCCC1 (stereo unspecified)	< 4.00
COc1cc2nc(NCCNS(C)(=O)=O)cc(C)c2cc1OC	< 4.00
CC(c1cccnc1)N(C)Cc1cc2cc3c(cc2[nH]c1=O)OCO3 (stereo unspecified)	< 4.00
Cc1ccc(-c2cc(-c3c(C)nn(CCO)c3C)c(C#N)c(N)n2)cc1	< 4.00
N#Cc1cccc(N2CCCC3(CCC(=O)N(C4CCCC4)C3)C2)n1 (stereo unspecified)	< 4.00
Cc1ccc(C#N)c(N2CCC3(CCC(=O)N(CC(N)=O)C3)CC2)n1	< 4.00
Cc1cc2nc(-c3ccccc3)cc(NCC3CCS(=O)(=O)C3)n2n1 (stereo unspecified)	< 4.00
CCn1cc(-c2cc(-c3cc(CC(=O)O)cs3)nc(N)c2C#N)c(C)n1	< 4.00
Cn1ccc2c(-c3cc(N4CCOCC4)ncn3)ccnc21	< 4.00
COc1ccc2[nH]c(=O)c(CN(C)CCN3CCCC3)cc2c1	< 4.00
CC(C)Cc1cc(-c2cc(-c3ccc[nH]3)nc(N)c2C#N)n[nH]1	< 4.00
CC(C)SCCNC(=O)c1cccc2ccnn12	< 4.00
COc1ccc2c(c1OC)Cc1c-2nc(N)c(C#N)c1C1CCOC1 (stereo unspecified)	< 4.00
COc1cccc2ccc(N3CCC(O)(C(=O)O)CC3)nc12	< 4.00
N#Cc1cc2c(=O)n(CC(O)Cc3ccccc3)ccc2[nH]c1=O (stereo unspecified)	< 4.00
Cc1nc(N2C[C@H]3CC[C@@H](C2)N3)nc2cc(S(C)(=O)=O)ccc12	< 4.00
CC(C)c1ncc(-c2cc(C3CCC3)nc(N)c2C#N)cn1	< 4.00
O=C1CN(c2cc(-c3ccccc3F)nc3ccnn23)CCCN1	< 4.00

SMILES	pIC50
CN(C)c1nc2c(c(NCc3nnc4n3CCCCC4)n1)CCNC2	< 4.00
Cc1ccc2cc(CN(C)Cc3ccccn3)c(=O)[nH]c2c1	< 4.00
c1ccc(CCCN2CCCC(Nc3cnc4ccccc4n3)C2)cc1 (stereo unspecified)	< 4.00
CCCNCc1ccc(-c2cc(N)nc3[nH]ccc23)cc1	< 4.00
Cc1nn(C)c(C)c1-c1cc(-c2cc(CC(=O)O)cs2)nc(N)c1C#N	< 4.00
CCOC(=O)C1(Cc2cccc(OC)c2)CCN(Cc2ncc[nH]2)CC1	< 4.00
CC(c1ccco1)N(C)Cc1cc2cc3c(cc2[nH]c1=O)OCO3 (stereo unspecified)	< 4.00
O=C(O)C1(O)CCN(c2ccc3cccc(Cl)c3n2)CC1	< 4.00
Cc1n[nH]c(C)c1-c1cc(-c2ccc[nH]2)nc(N)c1C#N	< 4.00
Cc1ccnc(NCCCN2CCc3ccccc32)n1	< 4.00
CCC1(CO)CCCN(c2ncccc2C#N)C1 (stereo unspecified)	< 4.00
O=C(c1cncc(N2CCC(O)(CO)CC2)n1)N1CCCC1	< 4.00
N#Cc1c(C2CC2)cc(-c2ccc(O)cc2)nc1N	< 4.00
CCOc1ccc2[nH]c(=O)c(CN3CCC(O)CC3)cc2c1	< 4.00
N#Cc1ccnc(N2CCC(c3nccn3Cc3cscn3)CC2)c1	< 4.00
Cc1cc(C)c2cc(CNCC3CCCO3)c3nn(C)c(=O)n3c2c1 (stereo unspecified)	< 4.00
CC(=O)N1CCC(c2cc(C(F)(F)F)n3ccnc3n2)CC1	< 4.00
Cc1nc(C2CCCN2CC(=O)Nc2c(C)n[nH]c2C)no1 (stereo unspecified)	< 4.00
CCn1nc2c(cc1=O)CN(Cc1nc(C)c(C)o1)CC2	< 4.00
CN(Cc1ccccc1C#N)C1CCN(CCc2ccccn2)CC1	< 4.00
O=C(N1CCCC(n2cncn2)C1)C1(c2ccc(Cl)cc2)CCC1 (stereo unspecified)	< 4.00
CC(C)c1nnc2n1CCN(C(=O)Cc1csc(C(C)(C)C)n1)C2	< 4.00
Cc1ccc(NC2CCN(C(=O)c3ccoc3C)CC2)nn1	< 4.00
Cn1cc(Cl)cc1C(=O)N1CCCN(Cc2ccccc2)CC1	< 4.00
Cc1ccccc1-c1noc(CN2CCc3cncnc3C2)n1	< 4.00

SMILES	pIC50
Nc1nccnc1C(=O)NCCCNc1ccc(C(F)(F)F)cn1	< 4.00
Cc1noc2ncc(C(=O)NCC3CCS(=O)(=O)C3)cc12 (stereo unspecified)	< 4.00
CCN(CC1CCOC1)C(=O)c1cnc2onc(C)c2c1 (stereo unspecified)	< 4.00
CC(Cn1ccnc1)NC(=O)NCCc1cccs1 (stereo unspecified)	< 4.00
c1coc(-c2noc(CN3CCc4cncnc4C3)n2)c1	< 4.00
c1ncc2c(n1)CN(Cc1nc(-c3ccoc3)no1)CC2	< 4.00
COc1ccc(-c2nc(CN3CCc4cncnc4C3)no2)cc1	< 4.00
CN(Cc1ccsc1)C(=O)Nc1ccc(N2CCCC2)nc1	< 4.00
CN(Cc1ccsc1)C(=O)Nc1ccc(N(C)C)nc1	< 4.00
Cc1cc(C)n(CC2CN(c3cnc4ccccc4n3)CCO2)n1 (stereo unspecified)	< 4.00
c1ccc2nc(N3CCOC(Cn4cccn4)C3)cnc2c1 (stereo unspecified)	< 4.00
c1ccc2nc(N3CCOC(Cn4cncn4)C3)cnc2c1 (stereo unspecified)	< 4.00
COc1c(C2CCCN2Cc2noc(C)n2)c(C)nn1C (stereo unspecified)	< 4.00
Cc1ccccc1OCCN1CCn2c(C)nnc2C1	< 4.00
CCc1n[nH]c(C2CN(CCCS(C)(=O)=O)CCO2)n1 (stereo unspecified)	< 4.00
COc1ncccc1CNC(=O)c1cc(C)on1	< 4.00
CC(Cn1cccn1)NC(=O)N1CCN(Cc2ccsc2)CC1 (stereo unspecified)	< 4.00
c1ccc(-n2cc(CN3CCCC3Cn3cccn3)nn2)cc1 (stereo unspecified)	< 4.00
CCc1nc(C2CCCN2C(=O)CCCn2cncn2)no1 (stereo unspecified)	< 4.00
COc1ccc(-c2nnc(CNCCn3cc(C)cn3)o2)cc1	< 4.00
CN(C)CC1CN(c2cnc3ccccc3n2)CCO1 (stereo unspecified)	< 4.00

— ChEMBL document CHEMBL3988442, “University of Dundee, Small-Polar-MMV Screening Library” (2021)
